Source: paper PMC6823368 (Scientific Reports, 2019)
Where two headings read alike, the source gives them in different places.

Experiments:
3A4 = settings: hepatic isoenzyme; cited from earlier work
[1] = design: method as in earlier work; settings: cited from earlier work
[2] = Safety evaluations (adverse events, clinical and laboratory examinations)
Method: The safety assessments were conducted on account of clinical examinations, such as evaluation of general subject appearance, vital signs and routine hematology and biochemistry assays[35], together with adverse events evaluation (AEs), conducted at screening, pretreatment, post-treatment (day 7) and end of trial (day 16). […] AEs were defined as mild, moderate or severe[37]. Determination of causal relationship between AEs and study drugs followed the criterions announced by the World Health Organization[27].

COX-2 = settings: cited from earlier work
CYP2C9 = settings: hepatic isoenzyme; cited from earlier work
COX-1 = settings: read-out: 50% inhibitory concentration (IC50) of COX-1; cited from earlier work
plasma protein = settings: cited from earlier work
2D6 = settings: hepatic isoenzyme; cited from earlier work
prothrombin time (INR) = settings: area under INR-time profile 0-[…]; 5 mg warfarin; n=12
Method: Current study is phase I clinical trial, which was designed as open-labeled and fixed-sequence, and all the information/data were collected from a single center. […] The volunteers were hospitalized on day-1 (the day before the study), 10 hours of fasting was required before administration[27]. Subjects should avoid any activities involved in risks of haemorrhage[9].
(§1) The measurement outcomes contained area under the profile (AUC0-t), the terminal half-life (t1/2), maximum plasma concentration observed (Cmax), time of maximum concentration (Tmax). AUC from 0 to infinity (AUC0-∞). Parameters of pharmacodynamic were estimated from the INR data on each period. PT (INR) was measured with the use of prothrombin complex assay (STA-R, SPA 50 Reagent, Diagnostica stago)[34]. Maximum INR (INRmax) and baseline INR (INRbaseline) were determined by PTtest divide PTnormal.
(§2) Log-transformation of pharmacodynamic parameters INRmax and INR(AUC) were applied.

[3] = n=12; for Cmax / MRT0-∞: mean (SD); for Tmax: median (range)
Method: The volunteers were hospitalized on day-1 (the day before the study), 10 hours of fasting was required before administration[27].
The chromatographic separation was carried out on an LC system (Shimadzu LC-20AD, Tokyo, Japan) using water and acetonitrile, and AB QTRAP 4000 system (AB Sciex, Foster City, CA, USA) in positive electrospray ion mode was hired for quantification[29]–[31]. […] Liquid-liquid extraction with 3 mL dichloromethane: diethyl ether: (2:3, v/v) was employed for 200 μL human plasma.
as §1, §2

[4] = test system: vitamin K-dependent coagulation factors; settings: cited from earlier work
[5] = warfarin 5 mg with steady-state imrecoxib

In the case of `CCCN1CC(c2ccc(S(C)(=O)=O)cc2)=C(c2ccc(C)cc2)C1=O` [Imrecoxib, 4-(4-methylsulfonyl-phenyl)-1-propyl-3-(p-tolyl)-1H-pyrrol-2(5H)-one], the “rate of metabolism by CYP3A4” value (3A4) is listed as 16.4%, the accumulation in plasma ([1]; 200 mg bid for 11 consecutive days) is listed as “No accumulated effects” and the t1/2 [1] is listed as 20 h. For the same molecule, the Tmax ([1]; following oral consumption) was 2 h, the “single-dose pharmacokinetics dose linearity” value ([1]; over the 30 to 200 mg dose range) was “linear” and the adverse event ([2]; one subject, period 2, Day 8 after first dose (200 mg), about 1.5 hours, resolved without treatment, possibly related) was “mild abdominal/upper abdominal discomfort”. For the same molecule, the “selective index (IC50, COX-1/COX2)” value (COX-2; between that of meloxicam and celecoxib) was 6.39, the IC50 (COX-2; read-out: 50% inhibitory concentration (IC50) of COX-2) was 18 ± 4 nM and the “rate of metabolism by CYP2C9” value (CYP2C9) was 62.5%. The IC50 (COX-1) was 115 ± 28 nM, the “protein bound in plasma” value (plasma protein) was 96% and the “rate of metabolism by CYP2D6” value (2D6) was 21.1%.
For `CC(=O)CC(c1ccccc1)c1c(O)c2ccccc2oc1=O` (stereo not shown) [Warfarin], the safety and tolerance ([2]; healthy volunteers, across the trial) was “safey and good tolerance”, the “transient elevated direct bilirubin” value ([2]; one subject, period 1, day 7, upper limit of normal 6.8 μmol/L, grade 1 AE, considered unrelated to study drugs) was 9.6 µmol/L and the “INR (AUC)” value (prothrombin time (INR)) was 143.47.
With `CC(=O)C[C@H](c1ccccc1)c1c(O)c2ccccc2oc1=O` [R-warfarin] the Cmax ([3]; warfarin 5 mg alone) was 285.25 (39.66) μg/L, the “MRT0-∞” value ([3]; warfarin 5 mg alone) was 88.41 (19.96) hr and the Tmax ([3]; warfarin 5 mg alone) was 1.0 (0.5–3.0) hr. The Cmax [3, 5] was 300.75 (36.61) μg/L, the “MRT0-∞” value [3, 5] was 83.44 (13.39) hr and the Tmax [3, 5] was 0.8 (0.5–2.0) hr.
With `CC(=O)C[C@@H](c1ccccc1)c1c(O)c2ccccc2oc1=O` [S-warfarin] the Cmax ([3]; warfarin 5 mg alone) was 294.92 (50.35) μg/L, the “MRT0-∞” value ([3]; warfarin 5 mg alone) was 66.44 (15.76) hr and the Tmax ([3]; warfarin 5 mg alone) was 1.0 (0.5–3.0) hr. For the same molecule, the Cmax [3, 5] was 300.42 (34.01) μg/L, the “MRT0-∞” value [3, 5] was 63.35 (12.78) hr and the Tmax [3, 5] was 0.8 (0.5–2.0) hr. The “share of anticoagulant activity of warfarin” value [4] was 85%.
